Measured values from ChEMBL document CHEMBL3734715, “Synthesis and antiproliferativeactivity of new vinca alkaloids containing an α,β-unsaturated aromatic side chain” (Bioorg Med Chem Lett, 2015).
Where a name gives a salt, the structure may show the parent alone.

How the values were obtained:
Format in all cases: functional, cell-based
MCF7 = test: Cytotoxicity against human MCF7 cells after 72 hrs by SRB assay; details: MCF7, 72 h
KB = test: Cytotoxicity against human KB cells after 72 hrs by SRB assay
Lu1 = test: Cytotoxicity against human Lu1 cells after 72 hrs by SRB assay; details: Lu1, 72 h
HepG2 = test: Cytotoxicity against human HepG2 cells after 72 hrs by SRB assay; details: HepG2, 72 h

Compound | IC50 (MCF7) | IC50 (KB) | IC50 (Lu1) | IC50 (HepG2)
CC[C@]1(O)C[C@@H]2C[C@](C(=O)OC)(c3cc4c(cc3OC)N(C)[C@H]3[C@@](O)(C(=O)OC)[C@H](OC(C)=O)[C@]5(CC)C=CCN6CC[C@]43[C@@H]65)c3[nH]c4ccccc4c3CC[N@+](CC(=O)/C=C/c3ccc4ccccc4c3)(C2)C1 | 13.7 µM | 0.03 µM | 15.1 µM | 18.1 µM
CC[C@]1(O)C[C@@H]2C[C@](C(=O)OC)(c3cc4c(cc3OC)N(C=O)[C@H]3[C@@](O)(C(=O)OC)[C@H](OC(C)=O)[C@]5(CC)C=CCN6CC[C@]43[C@@H]65)c3[nH]c4ccccc4c3CC[N@+](CC(=O)/C=C/c3ccc(O)c(OC)c3)(C2)C1 | 3.08 µM | 1.67 µM | 3.45 µM | 2.44 µM
CC[C@]1(O)C[C@@H]2C[C@](C(=O)OC)(c3cc4c(cc3OC)N(C)[C@H]3[C@@](O)(C(=O)OC)[C@H](OC(C)=O)[C@]5(CC)C=CCN6CC[C@]43[C@@H]65)c3[nH]c4ccccc4c3CC[N@+](CC(=O)/C=C/c3ccc(Cl)cc3)(C2)C1 | 4.89 µM | 0.06 µM | 4.25 µM | 7.77 µM
CC[C@]1(O)C[C@@H]2C[C@](C(=O)OC)(c3cc4c(cc3OC)N(C=O)[C@H]3[C@@](O)(C(=O)OC)[C@H](OC(C)=O)[C@]5(CC)C=CCN6CC[C@]43[C@@H]65)c3[nH]c4ccccc4c3CC[N@+](CC(=O)/C=C/c3ccc4ccccc4c3)(C2)C1 | 11 µM | 0.08 µM | 12 µM | 7.94 µM
CCC1=C[C@@H]2C[C@](C(=O)OC)(c3cc4c(cc3OC)N(C)[C@H]3[C@@](O)(C(=O)OC)[C@H](OC(C)=O)[C@]5(CC)C=CCN6CC[C@]43[C@@H]65)c3[nH]c4ccccc4c3CC[N@@+](CC(=O)/C=C/c3ccc(Cl)cc3)(C1)C2 | 1.83 µM | 0.28 µM | 1.31 µM | 1.75 µM
CCC1=C[C@H]2CN(CCc3c([nH]c4ccccc34)[C@@](C(=O)OC)(c3c(OC)cc(N)cc3OC)C2)C1 | 21 µM | 11.5 µM | 19.4 µM | 20.4 µM
CC[C@]1(O)C[C@@H]2C[C@](C(=O)OC)(c3cc4c(cc3OC)N(C=O)[C@H]3[C@@](O)(C(=O)OC)[C@H](OC(C)=O)[C@]5(CC)C=CCN6CC[C@]43[C@@H]65)c3[nH]c4ccccc4c3CC[N@+](CC(=O)/C=C/c3ccc(Cl)cc3)(C2)C1 | 10.9 µM | 0.03 µM | 13.8 µM | 14.2 µM
CCC1=C[C@@H]2C[C@](C(=O)OC)(c3c(OC)cc(N)cc3OC)c3[nH]c4ccccc4c3CC[N@@+](CC(=O)/C=C/c3ccc4ccccc4c3)(C1)C2 | 11.9 µM | 4.16 µM | 8.34 µM | 10.9 µM
CCC1=C[C@@H]2C[C@](C(=O)OC)(c3c(OC)cc(N)cc3OC)c3[nH]c4ccccc4c3CC[N@@+](CC(=O)/C=C/c3ccc(O)c(OC)c3)(C1)C2 | 94.5 µM | 9.11 µM | 79 µM | 86.8 µM
CCC1=C[C@@H]2C[C@](C(=O)OC)(c3c(OC)cc(N)cc3OC)c3[nH]c4ccccc4c3CC[N@@+](CC(=O)/C=C/c3ccc(Cl)cc3)(C1)C2 | 17.9 µM | 6.12 µM | 13.8 µM | 20.2 µM
CCC1=C[C@@H]2C[C@](C(=O)OC)(c3cc4c(cc3OC)N(C)[C@H]3[C@@](O)(C(=O)OC)[C@H](OC(C)=O)[C@]5(CC)C=CCN6CC[C@]43[C@@H]65)c3[nH]c4ccccc4c3CC[N@@+](CC(=O)/C=C/c3ccc(O)c(OC)c3)(C1)C2 | 50.5 µM | 0.64 µM | 57.5 µM | 51.5 µM
CCC1=C[C@@H]2C[C@](C(=O)OC)(c3cc4c(cc3OC)N(C)[C@H]3[C@@](O)(C(=O)OC)[C@H](OC(C)=O)[C@]5(CC)C=CCN6CC[C@]43[C@@H]65)c3[nH]c4ccccc4c3CC[N@@+](CC(=O)/C=C/c3ccc4ccccc4c3)(C1)C2 | 4.82 µM | 0.64 µM | 3.71 µM | 4.31 µM
CC[C@]1(O)C[C@@H]2C[C@](C(=O)OC)(c3cc4c(cc3OC)N(C)[C@H]3[C@@](O)(C(=O)OC)[C@H](OC(C)=O)[C@]5(CC)C=CCN6CC[C@]43[C@@H]65)c3[nH]c4ccccc4c3CC[N@+](CC(=O)/C=C/c3ccc(O)c(OC)c3)(C2)C1 | 12.5 µM | 1.69 µM | 4.8 µM | 7.23 µM
CC[C@]1(O)C[C@H]2CN(CCc3c([nH]c4ccccc34)[C@@](C(=O)OC)(c3cc4c(cc3OC)N(C)[C@H]3[C@@](O)(C(=O)OC)[C@H](OC(C)=O)[C@]5(CC)C=CCN6CC[C@]43[C@@H]65)C2)C1 | 0.23 µM | 0.02 µM | 0.47 µM | 0.34 µM
CCC1=C[C@H]2CN(CCc3c([nH]c4ccccc34)[C@@](C(=O)OC)(c3cc4c(cc3OC)N(C)[C@H]3[C@@](O)(C(=O)OC)[C@H](OC(C)=O)[C@]5(CC)C=CCN6CC[C@]43[C@@H]65)C2)C1 | 4.63 µM | 2.06 µM | 5.98 µM | 4.53 µM
Cc1c2ccncc2c(C)c2c1[nH]c1ccccc12 [ELLIPTECINE] | 1.54 µM | 1.66 µM | 2.31 µM | 2.07 µM
CC[C@]1(O)C[C@H]2CN(CCc3c([nH]c4ccccc34)[C@@](C(=O)OC)(c3cc4c(cc3OC)N(C=O)[C@H]3[C@@](O)(C(=O)OC)[C@H](OC(C)=O)[C@]5(CC)C=CCN6CC[C@]43[C@@H]65)C2)C1 [VINCRISTINE SULFATE] | 0.51 µM | 0.02 µM | 0.48 µM | 0.69 µM
